Test results from article PMC10865806, “Structural insights into the molecular mechanism of high-level ceftazidime–avibactam resistance conferred by CMY-185” (mBio, 2024).
In brackets after ≈: the same amount, converted by molar mass.

Legend:
other β-lactamases = tested on: other β-lactamases; design: method as in PMID 30188999, PMID 27736756; details: cited from earlier work
AmpC^Ent385 = tested on: AmpC^Ent385; design: method as in PMID 32284381; details: lowest Km reported to date; cited from earlier work
CMY-172 = details: cited from earlier work
[1] = target: T1, CMY-2 variant V211S_N346Y (Klebsiella pneumoniae, UniProt Q48434, N366Y/V231S); assay: Steady-state hydrolysis kinetics; format: biochemical, Escherichia coli
T1 construct: all CMY-2 variant genes encoding the mature enzyme without a signal peptide were cloned into the protein expression plasmid vector pET-30b; made in house; host or cells: E. coli BL21 (DE3), pET-30b
From the text: (§1) We tested the enzymes, CMY-2, two single mutants V211S (CMY-42) and N346Y, three double mutants A114E_N346Y, Q120K_N346Y, and V211S_N346Y, and the quadruplet mutant CMY-185 to elucidate the impact on the kinetic properties resulting from the four amino acid substitutions present in CMY-185 compared with CMY-2 ([8]). The steady-state kinetic parameters kcat and Km (or Ki app) for nitrocefin, cephalothin, ceftazidime, and cefiderocol and the inhibition parameters Ki app, k2/K, k−2, and koff for avibactam are summarized in Table 1. During the hydrolysis of nitrocefin, we observed the reduction of the initial velocity at concentrations above 50 µM particularly for the CMY-2 variants harboring the N346Y substitution. As this could have represented substrate inhibition, we then determined the kinetics parameters for nitrocefin using the Haldane equation ([16]). […] In addition, during the hydrolysis of cefiderocol by CMY-185, the initial velocities at a concentration range of 3.7–59.4 µM were similar.
(§2) The steady-state kinetics were carried out on a UV-Visible spectrometer (UV-1280, Shimadzu, Japan) in PBS pH 7.2 at 25°C with a constant amount of enzyme and varying concentrations of the substrates. We tested nitrocefin, cephalothin, ceftazidime, and cefiderocol as the substrates and avibactam as the inhibitor. The steady-state kinetics parameters Km and kcat were determined with the Michaelis-Menten equation. For poorly hydrolyzed substrates, the Km value was assumed to be the competitive inhibition constant (Ki app) value according to previous studies ([17], [19]). Inhibition parameter values of Ki app, k2/K, k−2, and koff for avibactam were determined using a method as described previously ([33]). Cephalothin was used as the reporter substrate for competitive inhibition experiments, and its concentration was fixed at 100 µM. The enzyme concentration was 1–10 nM. Inverse steady-state initial velocities were plotted against the concentration of the competitive inhibitor agents, such as ceftazidime, cefiderocol, and avibactam. The data were analyzed by linear regression analysis of the Dixon plot, and Ki app (observed) was determined by dividing the y-intercept value by the slope of the line. It was then corrected to account for the affinity of cephalothin for each enzyme using the Equation (1): […]

CMY-185 = target: T2, CMY-185 (Klebsiella pneumoniae, UniProt Q48434, A134E/N366Y/Q140K/V231S); assay: Steady-state hydrolysis kinetics; format: biochemical, Escherichia coli
T2 construct: all CMY-2 variant genes encoding the mature enzyme without a signal peptide were cloned into the protein expression plasmid vector pET-30b; made in house; host or cells: E. coli BL21 (DE3), pET-30b
From the text: as §1, §2

[2] = target: T3, CMY-2 variant Q120K_N346Y (Klebsiella pneumoniae, UniProt Q48434, N366Y/Q140K); assay: Steady-state hydrolysis kinetics; format: biochemical, Escherichia coli; details: substrate 100 µM, 100–200 nM enzyme
T3 construct: all CMY-2 variant genes encoding the mature enzyme without a signal peptide were cloned into the protein expression plasmid vector pET-30b; made in house; host or cells: E. coli BL21 (DE3), pET-30b
From the text: as §1, §2

V211S (CMY-42) = target: T4, V211S (CMY-42) (Klebsiella pneumoniae, UniProt Q48434, V231S); assay: Steady-state hydrolysis kinetics; format: biochemical, Escherichia coli; details: PBS pH 7.2, 25°C
T4 construct: all CMY-2 variant genes encoding the mature enzyme without a signal peptide were cloned into the protein expression plasmid vector pET-30b; made in house; host or cells: E. coli BL21 (DE3), pET-30b
From the text: as §1, §2

CMY-2 variant N346Y = target: T5, CMY-2 variant N346Y (Klebsiella pneumoniae, UniProt Q48434, N366Y); assay: Steady-state hydrolysis kinetics; format: biochemical, Escherichia coli; details: substrate 100 µM, 100–200 nM enzyme
T5 construct: all CMY-2 variant genes encoding the mature enzyme without a signal peptide were cloned into the protein expression plasmid vector pET-30b; made in house; host or cells: E. coli BL21 (DE3), pET-30b
From the text: as §1
as §2, with “The enzyme concentration was 1–10 nM.” left out

[3] = target: T6, CMY-2 variant A114E_N346Y (Klebsiella pneumoniae, UniProt Q48434, A134E/N366Y); assay: Steady-state hydrolysis kinetics; format: biochemical, Escherichia coli; details: substrate 100 µM, 100–200 nM enzyme
T6 construct: all CMY-2 variant genes encoding the mature enzyme without a signal peptide were cloned into the protein expression plasmid vector pET-30b; made in house; host or cells: E. coli BL21 (DE3), pET-30b
From the text: as §1
as §2, with “The enzyme concentration was 1–10 nM.” left out

CMY-2 = target: T7, CMY-2 (Klebsiella pneumoniae, UniProt Q48434); assay: Steady-state hydrolysis kinetics; format: biochemical, Escherichia coli; details: substrate 100 µM, 100–200 nM enzyme
T7 construct: all CMY-2 variant genes encoding the mature enzyme without a signal peptide were cloned into the protein expression plasmid vector pET-30b; made in house; host or cells: E. coli BL21 (DE3), pET-30b
From the text: as §1
as §2, with “The enzyme concentration was 1–10 nM.” left out

In the case of `CC(C)(O/N=C(\C(=O)N[C@@H]1C(=O)N2C(C(=O)[O-])=C(C[N+]3(CCNC(=O)c4ccc(O)c(O)c4Cl)CCCC3)CS[C@H]12)c1csc(N)n1)C(=O)O` [Cefiderocol, cefiderocol], the Km (other β-lactamases) is given as over 190 µM, the Km (AmpC^Ent385) is given as 49.8 µM and the MIC (CMY-172) is given as 1 µg/mL (≈ 1.33 µM). The “fold lower Km” value ([1]; V211S_N346Y compared to V211S) was 10 fold, the Km ([1]; V211S_N346Y, PBS pH 7.2, 25°C) was 6.9 ± 1.5 µM and the kcat ([1]; V211S_N346Y, PBS pH 7.2, 25°C) was 0.049 ± 0.003 s⁻¹. For the same molecule, the kcat (CMY-185; determined with steady-state velocities (cefiderocol 3.7–59.4 µM) and Ki app assumed to Km) was 6.9 × 10^−3 ± 0.4 ×10^−3 a s^−1, the kcat/Ki app (CMY-185; kcat/Ki app shown in the kcat/Km line) was 3.0 × 10^−2 ± 0.2 × 10^−2 b µM^−1 s^−1 and the hydrolysis [2] was “no apparent hydrolysis”. For the same molecule, the Km (V211S (CMY-42)) was 68 ± 11 µM, the kcat (V211S (CMY-42)) was 0.034 ± 0.002 s⁻¹ and the kcat (V211S (CMY-42); listed as cefiderocol) was “(3.4 ± 0.2) × 10^−2 s^−1”. The hydrolysis (CMY-2 variant N346Y) was “no apparent hydrolysis”, the hydrolysis [3] was “no apparent hydrolysis” and the hydrolysis (CMY-2) was “no apparent hydrolysis”.
